Columns and labels:
Ba/F3-TEL-JAK2 cells = test: CellTiter-Glo proliferation of Ba/F3-TEL-JAK2 cells; format: cell-based; conditions: Mus musculus, murine B lymphocyte BaF3 with TEL-human JAK2 kinase domain
Source text: (§1) In murine B lymphocytes BaF3, recombinant genes (including TEL and human JAK1, TYK2, JAK2, JAK3 kinase domains) were transferred by using genetic engineering technology, in which TEL could promote phosphorylation of TEL-JAK1 or TEL-TYK2 kinase dimer and continuously activate, thus allowing cells to grow dependent on the activity of this recombinant kinase. […] CellTiter-Glo method was used to detect the proliferation of genetically engineered cell lines Ba/F3-TEL-JAK1, Ba/F3-TEL-TYK2, Ba/F3-TEL-JAK2, and Ba/F3-TEL-JAK3 which was cultured in vitro. Graphpad 7.0 was used to fit curves and IC 50 values were calculated.

JAK3 = target: T1, JAK3 (Homo sapiens, UniProt P52333); test: Caliper mobility shift kinase assay, JAK3; format: biochemical; conditions: 1 mM ATP concentration
T1 sequence (P52333 1-1124): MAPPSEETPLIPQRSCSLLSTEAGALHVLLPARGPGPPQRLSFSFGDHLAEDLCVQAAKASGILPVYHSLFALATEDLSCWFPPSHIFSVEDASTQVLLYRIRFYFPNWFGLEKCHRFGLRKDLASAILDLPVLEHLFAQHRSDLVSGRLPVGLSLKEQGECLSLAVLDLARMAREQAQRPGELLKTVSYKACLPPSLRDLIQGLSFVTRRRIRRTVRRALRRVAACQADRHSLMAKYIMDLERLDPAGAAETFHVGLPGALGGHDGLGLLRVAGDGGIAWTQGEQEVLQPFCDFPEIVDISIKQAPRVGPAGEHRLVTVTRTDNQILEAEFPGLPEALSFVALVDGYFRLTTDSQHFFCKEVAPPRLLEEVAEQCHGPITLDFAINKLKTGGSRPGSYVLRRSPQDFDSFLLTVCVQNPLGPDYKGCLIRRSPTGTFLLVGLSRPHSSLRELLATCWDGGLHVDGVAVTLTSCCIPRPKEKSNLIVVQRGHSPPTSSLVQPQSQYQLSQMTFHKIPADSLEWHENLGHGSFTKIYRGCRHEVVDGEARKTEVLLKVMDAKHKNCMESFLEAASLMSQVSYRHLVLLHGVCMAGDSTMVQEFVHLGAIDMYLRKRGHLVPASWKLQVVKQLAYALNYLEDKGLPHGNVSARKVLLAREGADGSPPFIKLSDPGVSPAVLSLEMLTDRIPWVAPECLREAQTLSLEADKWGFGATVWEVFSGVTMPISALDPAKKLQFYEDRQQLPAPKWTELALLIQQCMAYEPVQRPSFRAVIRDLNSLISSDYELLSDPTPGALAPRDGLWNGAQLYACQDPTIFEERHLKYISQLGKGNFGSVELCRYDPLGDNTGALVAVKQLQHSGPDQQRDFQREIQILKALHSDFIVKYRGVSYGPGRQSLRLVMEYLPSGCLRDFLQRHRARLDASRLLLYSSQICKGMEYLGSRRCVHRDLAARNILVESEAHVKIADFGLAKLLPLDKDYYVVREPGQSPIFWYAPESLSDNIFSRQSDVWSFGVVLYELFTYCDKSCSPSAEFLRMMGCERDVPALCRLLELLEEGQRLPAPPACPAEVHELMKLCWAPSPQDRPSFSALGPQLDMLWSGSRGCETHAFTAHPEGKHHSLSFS
Method: (§2) The in vitro inhibitory effect of compounds on JAK1, JAK2, JAK3 or TYK2 kinase was detected by Caliper mobility shift assay. Compounds to be tested were dissolved in DMSO, and prepared into 10 mM stock solutions. Stock solutions of the compounds were prepared into 50× working solutions (10 concentrations in total) through gradient dilution using DMSO, and each concentration of working solution was transferred to an Echo® master plate. The Echo® non-contact nanoliter sonic pipetting system was used to transfer […] of compound solution or DMSO of the corresponding concentration from the master plate to the 384-well reaction plate. Then, 10 μL of 2.5× kinase solution was added to the 384-well reaction plate. After 10 minutes of incubation at room temperature, 10 μL of mixed solution of 2.5×FAM-labeled polypeptide and ATP (final ATP concentration was 1 mM) was added. 30 μL of stop reagent was added, detected on Caliper, and the conversion value was calculated, i.e. the height of the product peak divided by the sum of the heights of the substrate and product peaks. […] Percent inhibition=(max−conversion)/(max−min)×100, wherein “max” represents the conversion reading for the DMSO control and “min” represents the conversion reading for the low value control.

JAK2 = JAK2 (Homo sapiens, UniProt O60674); test: Caliper mobility shift kinase assay, JAK2; format: biochemical; conditions: 1 mM ATP concentration
JAK2, sequence (O60674 whole entry): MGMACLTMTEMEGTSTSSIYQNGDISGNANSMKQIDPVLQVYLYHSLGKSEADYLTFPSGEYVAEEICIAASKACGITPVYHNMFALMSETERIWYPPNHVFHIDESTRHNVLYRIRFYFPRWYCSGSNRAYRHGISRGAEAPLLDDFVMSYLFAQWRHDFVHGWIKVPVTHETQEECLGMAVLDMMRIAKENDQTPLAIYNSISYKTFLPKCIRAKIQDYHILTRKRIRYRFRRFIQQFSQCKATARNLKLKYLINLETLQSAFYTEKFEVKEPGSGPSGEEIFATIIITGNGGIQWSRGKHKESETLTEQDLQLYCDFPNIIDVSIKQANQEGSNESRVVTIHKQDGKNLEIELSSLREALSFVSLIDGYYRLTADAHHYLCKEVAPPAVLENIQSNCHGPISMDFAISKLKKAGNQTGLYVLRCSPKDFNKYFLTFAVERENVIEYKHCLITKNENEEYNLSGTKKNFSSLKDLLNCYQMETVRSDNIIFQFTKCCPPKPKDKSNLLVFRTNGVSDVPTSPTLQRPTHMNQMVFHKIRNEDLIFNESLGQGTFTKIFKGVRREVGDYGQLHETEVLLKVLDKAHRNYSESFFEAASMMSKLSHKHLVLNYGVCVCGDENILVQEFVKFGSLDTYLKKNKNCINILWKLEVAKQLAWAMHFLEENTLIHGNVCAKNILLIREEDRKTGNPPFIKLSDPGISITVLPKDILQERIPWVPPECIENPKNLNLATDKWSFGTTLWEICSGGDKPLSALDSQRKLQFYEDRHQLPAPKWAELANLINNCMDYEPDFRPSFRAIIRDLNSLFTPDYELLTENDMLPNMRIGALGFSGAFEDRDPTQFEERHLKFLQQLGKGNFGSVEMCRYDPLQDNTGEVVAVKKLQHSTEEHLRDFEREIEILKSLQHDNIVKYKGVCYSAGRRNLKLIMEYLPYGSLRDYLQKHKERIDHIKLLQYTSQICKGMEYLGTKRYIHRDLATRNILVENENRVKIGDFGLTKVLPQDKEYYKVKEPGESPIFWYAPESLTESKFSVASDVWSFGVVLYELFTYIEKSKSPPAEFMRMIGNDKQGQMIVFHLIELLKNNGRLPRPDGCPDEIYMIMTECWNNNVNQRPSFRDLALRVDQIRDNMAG
Method: as §2

Ba/F3-TEL-TYK2 cells = test: CellTiter-Glo proliferation of Ba/F3-TEL-TYK2 cells; format: cell-based; conditions: Mus musculus, murine B lymphocyte BaF3 with TEL-human TYK2 kinase domain
Source text: as §1

JAK1 = JAK1 (Homo sapiens, UniProt P23458); test: Caliper mobility shift kinase assay, JAK1; format: biochemical; conditions: 1 mM ATP concentration
JAK1, sequence (P23458 whole entry): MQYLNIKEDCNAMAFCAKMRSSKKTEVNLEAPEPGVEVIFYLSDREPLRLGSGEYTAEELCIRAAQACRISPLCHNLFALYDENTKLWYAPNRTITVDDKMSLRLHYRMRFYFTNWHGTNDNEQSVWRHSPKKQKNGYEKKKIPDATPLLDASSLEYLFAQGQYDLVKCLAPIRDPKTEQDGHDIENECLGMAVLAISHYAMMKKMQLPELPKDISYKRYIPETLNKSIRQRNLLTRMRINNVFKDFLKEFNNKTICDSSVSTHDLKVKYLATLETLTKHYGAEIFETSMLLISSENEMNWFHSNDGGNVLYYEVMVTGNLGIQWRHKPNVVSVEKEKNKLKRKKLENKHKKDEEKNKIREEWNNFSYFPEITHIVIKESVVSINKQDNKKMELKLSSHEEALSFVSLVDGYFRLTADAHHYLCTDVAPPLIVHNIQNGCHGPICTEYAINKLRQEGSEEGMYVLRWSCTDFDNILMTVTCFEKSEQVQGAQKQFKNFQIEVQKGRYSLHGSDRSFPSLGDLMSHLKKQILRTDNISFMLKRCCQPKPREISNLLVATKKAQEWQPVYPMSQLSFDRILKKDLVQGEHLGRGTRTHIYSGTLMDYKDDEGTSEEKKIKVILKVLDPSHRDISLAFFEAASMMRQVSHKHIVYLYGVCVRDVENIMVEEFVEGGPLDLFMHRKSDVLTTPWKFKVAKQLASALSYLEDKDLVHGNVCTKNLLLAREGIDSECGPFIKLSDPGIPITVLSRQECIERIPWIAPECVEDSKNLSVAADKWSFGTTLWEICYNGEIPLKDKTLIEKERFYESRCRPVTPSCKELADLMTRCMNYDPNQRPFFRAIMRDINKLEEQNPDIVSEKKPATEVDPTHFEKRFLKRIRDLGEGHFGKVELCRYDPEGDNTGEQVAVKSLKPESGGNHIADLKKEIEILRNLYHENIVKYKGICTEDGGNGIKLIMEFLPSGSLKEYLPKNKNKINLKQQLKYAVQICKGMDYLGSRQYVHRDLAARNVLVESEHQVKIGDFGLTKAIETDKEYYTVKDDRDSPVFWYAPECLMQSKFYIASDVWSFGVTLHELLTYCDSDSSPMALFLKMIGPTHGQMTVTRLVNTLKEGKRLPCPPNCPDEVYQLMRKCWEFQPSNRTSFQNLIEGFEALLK
Method: as §2

Ba/F3-TEL-JAK1 cells = test: CellTiter-Glo proliferation of Ba/F3-TEL-JAK1 cells; format: cell-based; conditions: Mus musculus, murine B lymphocyte BaF3 with TEL-human JAK1 kinase domain
Source text: as §1

TYK2 = TYK2 (Homo sapiens, UniProt P29597); test: Caliper mobility shift kinase assay, TYK2; format: biochemical; conditions: 1 mM ATP concentration
TYK2, sequence (P29597 whole entry): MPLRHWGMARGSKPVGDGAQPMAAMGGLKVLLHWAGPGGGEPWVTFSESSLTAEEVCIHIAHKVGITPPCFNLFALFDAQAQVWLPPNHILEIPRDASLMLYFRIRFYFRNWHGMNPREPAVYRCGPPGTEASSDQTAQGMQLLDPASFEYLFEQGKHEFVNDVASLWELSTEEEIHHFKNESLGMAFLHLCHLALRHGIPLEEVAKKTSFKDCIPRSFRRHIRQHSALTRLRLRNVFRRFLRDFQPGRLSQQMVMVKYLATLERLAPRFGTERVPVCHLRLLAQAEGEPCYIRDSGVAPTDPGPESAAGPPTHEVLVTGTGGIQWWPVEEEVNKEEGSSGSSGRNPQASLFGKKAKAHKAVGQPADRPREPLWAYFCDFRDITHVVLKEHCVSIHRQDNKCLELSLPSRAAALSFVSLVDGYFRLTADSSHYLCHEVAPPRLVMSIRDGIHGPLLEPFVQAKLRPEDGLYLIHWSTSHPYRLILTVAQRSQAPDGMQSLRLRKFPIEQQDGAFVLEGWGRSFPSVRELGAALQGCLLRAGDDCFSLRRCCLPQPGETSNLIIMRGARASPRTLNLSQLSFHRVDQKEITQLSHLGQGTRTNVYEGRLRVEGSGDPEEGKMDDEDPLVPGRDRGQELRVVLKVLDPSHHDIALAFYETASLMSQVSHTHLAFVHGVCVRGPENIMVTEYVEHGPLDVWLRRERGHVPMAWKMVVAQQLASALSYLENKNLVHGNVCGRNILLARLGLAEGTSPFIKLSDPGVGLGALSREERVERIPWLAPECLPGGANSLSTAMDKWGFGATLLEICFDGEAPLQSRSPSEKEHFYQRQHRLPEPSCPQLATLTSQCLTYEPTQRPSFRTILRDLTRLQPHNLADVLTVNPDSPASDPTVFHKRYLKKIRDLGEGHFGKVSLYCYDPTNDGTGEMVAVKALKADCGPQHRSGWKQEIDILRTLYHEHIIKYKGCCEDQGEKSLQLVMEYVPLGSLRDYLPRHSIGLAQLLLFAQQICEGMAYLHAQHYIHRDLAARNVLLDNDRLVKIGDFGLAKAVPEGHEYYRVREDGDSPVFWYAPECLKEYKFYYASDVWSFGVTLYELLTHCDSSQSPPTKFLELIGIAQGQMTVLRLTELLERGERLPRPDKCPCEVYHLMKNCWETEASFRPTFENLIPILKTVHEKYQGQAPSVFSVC
Method: as §2

Ba/F3-TEL-JAK3 cells = test: CellTiter-Glo proliferation of Ba/F3-TEL-JAK3 cells; format: cell-based; conditions: Mus musculus, murine B lymphocyte BaF3 with TEL-human JAK3 kinase domain
Source text: as §1

Row | Structure (SMILES) | IC50 (Ba/F3-TEL-JAK2 cells) [nM] | IC50 (JAK3) [nM] | IC50 (JAK2) [nM] | IC50 (Ba/F3-TEL-TYK2 cells) [nM] | IC50 (JAK1) [nM] | IC50 (Ba/F3-TEL-JAK1 cells) [nM] | IC50 (TYK2) [nM] | IC50 (Ba/F3-TEL-JAK3 cells) [nM]
1 | Cn1cc(Nc2nccc(N3CC4CSC(C3)N4C(=O)[C@@H]3CC3(F)F)n2)cn1 (stereo partly shown) [Example 1] | 87 | 3470 | 27 | 111 | 32 | 31 | 4.2 | 3690
2 | O=C([C@@H]1CC1(F)F)N1[C@H]2CS[C@@H]1CN(c1ccnc(Nc3cnn(CCO)c3)n1)C2 [Example 2] | 173 | 2270 | 1.4 | 192 | 10 | 314 | 1.7 | 8640
3 | O=C([C@@H]1CC1(F)F)N1[C@H]2CS[C@@H]1CN(c1ccnc(Nc3cnn(C4(CO)CC4)c3)n1)C2 [Example 3] | 427 |  |  | 556 | 107 | 56 | 2.9 | > 10000

— patent US20230099739A1, “JAK KINASE INHIBITOR AND PREPARATION AND APPLICATION THEREOF” (MINGHUI PHARMACEUTICAL (SHANGHAI) LIMITED, priority 2020, published 2023)
